This note sets out measurements from US20250154597A1, “TRANSCRIPTIONAL REPROGRAMMING DIFFERENTIATES ACTIVE FROM INACTIVE ESR1 FUSIONS IN ENDOCRINE THERAPY-REFRACTORY METASTATIC BREAST CANCER” (Baylor College of Medicine, priority 2021, published 2025).

One assay deals with T1, WT ERα protein (Homo sapiens, UniProt P03372).
T1 sequence (P03372 1-595): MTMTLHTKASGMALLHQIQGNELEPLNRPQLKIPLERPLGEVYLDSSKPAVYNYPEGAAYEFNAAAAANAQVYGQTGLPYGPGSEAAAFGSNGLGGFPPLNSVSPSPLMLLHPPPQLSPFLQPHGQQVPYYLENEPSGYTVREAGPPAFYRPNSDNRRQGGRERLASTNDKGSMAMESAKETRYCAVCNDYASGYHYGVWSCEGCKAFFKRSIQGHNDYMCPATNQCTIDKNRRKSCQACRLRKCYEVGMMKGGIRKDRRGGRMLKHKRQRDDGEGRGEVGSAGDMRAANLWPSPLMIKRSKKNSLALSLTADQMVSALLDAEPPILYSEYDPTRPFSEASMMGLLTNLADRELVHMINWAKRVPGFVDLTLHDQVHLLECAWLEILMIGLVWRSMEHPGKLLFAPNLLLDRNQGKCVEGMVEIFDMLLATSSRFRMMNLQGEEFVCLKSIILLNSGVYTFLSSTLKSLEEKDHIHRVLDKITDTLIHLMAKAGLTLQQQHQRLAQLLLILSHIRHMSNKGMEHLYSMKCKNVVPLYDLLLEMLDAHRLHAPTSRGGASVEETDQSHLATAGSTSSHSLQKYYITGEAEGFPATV
As to the kind of experiment: Immunoblotting of endogenous WT ERα after fulvestrant treatment. The conditions noted are these: 100 nM fulvestrant; hormone-deprived stable T47D and MCF7 cells. In kind it is cell-based. Background: In western blotting, separated proteins are transferred to a membrane and probed.

Another assay deals with ESR1 fusion protein. In words: Immunoblotting of ESR1 fusion proteins after fulvestrant treatment. The class given is cell-based. Particulars: 100 nM fulvestrant; hormone-deprived stable T47D and MCF7 cells. Here is the method:
(§1) Immunoblotting and immunoprecipitation—Cells were harvested and whole cell lysates were prepared in RIPA lysis buffer as described (7) or in MIB lysis buffer (10) supplemented with 1× protease inhibitors and 1× phosphatase inhibitors (Roche) by sonication for 2 minutes. To make ER+ PDX tumor lysates, frozen PDX tumors were cryopulverized with a Covaris CP02 Pulverizer and then protein was extracted in MIB lysis buffer with sonication. Protein concentration determination and SDS-PAGE ([…] protein per lane) were performed as described (7). Immunoblotting of nitrocellulose membranes was performed as described (7). Primary and HRP-conjugated secondary antibodies employed are listed in the Supplementary information.
(§2) To characterize each chimeric ESR1 fusion protein, HA-tagged cDNA constructs were expressed in two ER+ breast cancer cell lines (T47D and MCF7) by lentiviral transduction. Stable cell lines expressing yellow fluorescent protein (YFP) were generated as negative controls. Truncated ESR1 (ESR1-e6 protein) and wild-type ESR1 (ESR1-WT protein) were also stably expressed to provide over-expression controls (FIGS. 2A and 2D). When cells were treated with 100 nM fulvestrant, a selective ERα degrader that inhibits endogenous ERα (21), the level of ESR1 fusion protein was predictably unaffected. […] Cell growth was measured using an alamarBlue assay. […]

Another assay deals with T47D cells. As to the kind of experiment: Cell growth, alamarBlue assay. In kind it is cell-based. Particulars: 100 nM fulvestrant, 7-10 days. The method, then: Cell growth, motility and invasion assays—Cell growth assays of different ESR1 fusion protein expressing breast cancer cells that were first hormone-deprived and then subsequently treated either with 100 nM fulvestrant in the presence or absence of 10 nM E2 for 7-10 days were performed in 96-well plates using an alamarBlue™ assay as described (7). Cell growth reading values were normalized to that of control YFP cells, −E2.
as §2, with “unaffected. In comparison, the WT ERα protein was reliably degraded, providing an endogenous control for fulvestrant activity (FIGS. 2A and 2D).” for “unaffected.”
In general terms: Alamar Blue is a resazurin reagent that responds to reducing activity.

Assay [1] relates to T47D cells expressing active ESR1 fusion proteins. In words: Expression of estrogen response and EMT-related genes (RT-qPCR, immunoblotting). The class given is cell-based. The conditions noted are these: 100 nM fulvestrant; E2-deprived T47D cells. The method, then: as §1
Reverse transcription-quantitative PCR (RT-qPCR)—RNA was isolated from hormone-deprived stable T47D cells as above with concentration determined using a NanoDrop spectrophotometer. […]
To define the transcriptional profile driven by active ESR1 fusion proteins, RNA-Seq was performed on T47D cells expressing these ESR1 fusion cDNAs as well as control (YFP, ESR1-e6, and ESR1-WT) cells in the presence and absence of E2. […] The expression of three canonical estrogen response genes in stably transfected T47D cells were validated using reverse transcription-quantitative PCR (RT-qPCR). […]
(In qPCR the cycle at which signal appears reflects the starting amount.)

For assay [2], the target named is T2, ESR1-e6>YAP1 fusion protein, C-terminal HA-tagged (UniProt P03372 1-365; P46937 230-504, limits assumed).
T2 construct: Stably expressed in T47D cells by lentiviral transduction; also called ESR1-YAP1; not shown: C-terminal HA tag
In words: co-immunoprecipitation: anti-HA IP from hormone-deprived T47D cell lysates with or without 100 nM E2, blot with C-terminal ERα antibody.

Assay [3] deals with T3, ESR1-e6>PCDH11X fusion protein, C-terminal HA-tagged (UniProt P03372 1-365; Q9BZA7 1013-1347, limits assumed).
T3 construct: Stably expressed in T47D cells by lentiviral transduction; not shown: C-terminal HA tag
T3 sequence (looked up): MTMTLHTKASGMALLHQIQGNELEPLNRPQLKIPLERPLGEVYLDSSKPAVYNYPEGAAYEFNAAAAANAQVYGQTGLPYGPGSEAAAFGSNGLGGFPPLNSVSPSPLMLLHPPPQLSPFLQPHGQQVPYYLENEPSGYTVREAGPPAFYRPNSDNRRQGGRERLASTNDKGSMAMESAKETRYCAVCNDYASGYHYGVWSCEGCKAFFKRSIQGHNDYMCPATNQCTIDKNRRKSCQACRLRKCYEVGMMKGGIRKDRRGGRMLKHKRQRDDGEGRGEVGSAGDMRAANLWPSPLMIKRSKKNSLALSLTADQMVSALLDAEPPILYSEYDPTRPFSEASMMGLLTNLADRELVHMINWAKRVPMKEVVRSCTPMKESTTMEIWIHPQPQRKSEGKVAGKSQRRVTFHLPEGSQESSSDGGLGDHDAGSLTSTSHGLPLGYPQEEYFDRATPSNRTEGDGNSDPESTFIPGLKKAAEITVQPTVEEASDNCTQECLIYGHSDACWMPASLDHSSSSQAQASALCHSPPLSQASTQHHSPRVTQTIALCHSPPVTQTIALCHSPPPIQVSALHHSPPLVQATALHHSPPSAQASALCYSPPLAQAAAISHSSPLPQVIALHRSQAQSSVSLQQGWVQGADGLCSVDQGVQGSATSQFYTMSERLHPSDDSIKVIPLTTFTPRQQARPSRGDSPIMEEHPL
The assay is described as above.

Assay [4] has as its target T4, ESR1-e6>SOX9 fusion protein, HA-tagged (UniProt P03372 1-365; P48436 229-509, limits assumed).
T4 construct: Stably expressed in T47D cells by lentiviral transduction; not shown: HA tag (constructed in a similar fashion to the C-terminal HA-tagged constructs)
T4 sequence (looked up): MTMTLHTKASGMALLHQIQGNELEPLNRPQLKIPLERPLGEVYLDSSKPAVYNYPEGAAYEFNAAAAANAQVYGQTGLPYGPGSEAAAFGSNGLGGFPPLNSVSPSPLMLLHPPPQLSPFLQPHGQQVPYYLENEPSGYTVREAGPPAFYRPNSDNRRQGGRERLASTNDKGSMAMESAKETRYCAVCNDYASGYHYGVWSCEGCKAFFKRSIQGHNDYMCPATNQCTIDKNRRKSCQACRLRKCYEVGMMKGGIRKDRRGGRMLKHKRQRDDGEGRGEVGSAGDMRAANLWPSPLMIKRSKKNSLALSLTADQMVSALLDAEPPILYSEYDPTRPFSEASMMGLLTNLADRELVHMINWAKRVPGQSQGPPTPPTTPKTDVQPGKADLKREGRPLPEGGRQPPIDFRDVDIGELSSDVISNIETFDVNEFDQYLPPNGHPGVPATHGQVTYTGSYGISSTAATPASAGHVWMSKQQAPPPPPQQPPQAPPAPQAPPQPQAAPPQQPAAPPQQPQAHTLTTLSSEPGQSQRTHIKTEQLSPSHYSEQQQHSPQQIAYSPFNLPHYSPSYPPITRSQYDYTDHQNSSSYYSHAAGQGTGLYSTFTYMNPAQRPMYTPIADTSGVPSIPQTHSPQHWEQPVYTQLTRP
The description is as above.

Procedure for WT ERα protein: Immunoblotting and immunoprecipitation—Cells were harvested and whole cell lysates were prepared in RIPA lysis buffer as described (7) or in MIB lysis buffer (10) supplemented with 1× protease inhibitors and 1× phosphatase inhibitors (Roche) by sonication for 2 minutes. […] Protein concentration determination and SDS-PAGE (20 g protein per lane) were performed as described (7). Immunoblotting of nitrocellulose membranes was performed as described (7). Primary and HRP-conjugated secondary antibodies employed are listed in the Supplementary information.

For `C[C@]12CC[C@@H]3c4ccc(O)cc4C[C@@H](CCCCCCCCC[S+]([O-])CCCC(F)(F)C(F)(F)F)[C@H]3[C@@H]1CC[C@@H]2O` (stereo partly shown) [fulvestrant], the “level of WT ERα protein” value on WT ERα protein is listed as “degraded”. In addition, the “level of ESR1 fusion protein” value in the assay on ESR1 fusion protein is given as “unaffected”. Besides, the “E2-independent growth of T47D cells expressing ESR1-e6>YAP1, >PCDH11X, >SOX9, >ARNT2-e18” value with T47D cells is recorded as “uniformly resistant to fulvestrant”. For the same molecule, in assay [1], the “expression of estrogen response and EMT-related genes induced by active ESR1 fusion proteins” value is reported as “unaffected”.

B1: endogenously expressed ERα (wild-type estrogen receptor alpha, encoded by ESR1) (receptor, UniProt P03372 1-595, looked up)
chain: MTMTLHTKASGMALLHQIQGNELEPLNRPQLKIPLERPLGEVYLDSSKPAVYNYPEGAAYEFNAAAAANAQVYGQTGLPYGPGSEAAAFGSNGLGGFPPLNSVSPSPLMLLHPPPQLSPFLQPHGQQVPYYLENEPSGYTVREAGPPAFYRPNSDNRRQGGRERLASTNDKGSMAMESAKETRYCAVCNDYASGYHYGVWSCEGCKAFFKRSIQGHNDYMCPATNQCTIDKNRRKSCQACRLRKCYEVGMMKGGIRKDRRGGRMLKHKRQRDDGEGRGEVGSAGDMRAANLWPSPLMIKRSKKNSLALSLTADQMVSALLDAEPPILYSEYDPTRPFSEASMMGLLTNLADRELVHMINWAKRVPGFVDLTLHDQVHLLECAWLEILMIGLVWRSMEHPGKLLFAPNLLLDRNQGKCVEGMVEIFDMLLATSSRFRMMNLQGEEFVCLKSIILLNSGVYTFLSSTLKSLEEKDHIHRVLDKITDTLIHLMAKAGLTLQQQHQRLAQLLLILSHIRHMSNKGMEHLYSMKCKNVVPLYDLLLEMLDAHRLHAPTSRGGASVEETDQSHLATAGSTSSHSLQKYYITGEAEGFPATV
notes: also called WT ERα; endogenous ERα
With B1, the binding result in assay [2], in assay [3] and in assay [4] was “no binding” each time.
